For orientation: Log P means the decadic logarithm of the partition coefficient of the neutral form, usually between octanol and water.

This note sets out measurements from PMC8876959, “Comparative Evaluation of Radiochemical and Biological Properties of ^131I- and [^99mTc]Tc(CO)3-Labeled RGD Analogues Planned to Interact with the αvβ3 Integrin Expressed in Glioblastoma” (Pharmaceuticals, 2022).

“And” between values parts separate entries of the source, which are not always exact repeats. Equal entries are not always repeated.

One series relates to serum proteins. Briefly: Serum protein binding (TCA precipitation). The format is in vitro ADME. The note with it: 25 µL radiopeptide in 175 µL serum, 37 °C, 1 h; 10% TCA precipitation; gamma counter; n = 6. As for the experimental part: Radiopeptides (25 μL) were added to 175 µL of serum (n = 6) and incubated at 37 °C for 1 h. After, 1 mL of 10% trichloroacetic acid (TCA) was added for the precipitation of proteins. The mixture was vortexed for 1 min and centrifuged at 1677× g for 10 min. This process was repeated three times. Both the supernatant’s and pellet’s radioactivity were measured in an automatic Wizard 3 2480 gamma counter (Perkin Elmer; Norwalk, CT, USA).

In the next series the test system is C6 cells. Briefly: In vitro specific binding to C6 cells (block with excess non-labeled peptide). Type of series: cell-based, rat. The note with it: 4 h. As for the experimental part:
The specific binding of the radiopeptides to C6 cells was evaluated in 12-well adherent plates, containing 2.0 × 10^5 cells per well. For the specific binding study (unblock), supplemented DMEM-F12 medium containing 1.66 nmol of the [^131I]I-GRGDYV or 8.88 nmol of the [^99mTc]Tc(CO) 3-GRGDHV was added in the wells. On the other hand, for the non-specific binding study (block), an excess of 1000× of the respective non-radiolabeled peptide (competitor) was added to the supplemented DMEM-F12 medium containing the radiopeptide in each well. In both cases, the plates were incubated at 37 °C in a humidified atmosphere containing 5% CO2 for 4 h and then, the supernatant was removed. Each well was washed with PBS, which was joined to the respective supernatant. Finally, the cells were removed by trypsinization and the contents were placed in microtubes. Each well was washed again with PBS, which was joined to the respective trypsinized cells. Cells and supernatants were counted in the above-mentioned automatic gamma counter.

The nature of series [1]: Partition coefficient (n-octanol/water). As to conditions: shake-flask, n-octanol/water (1:1), vortexed, 1 h at rest, centrifuged; gamma counter; mean ± SD, n = 6 (method: n = 5). Type of series: physicochemical. The method, then:
A fraction (100 μL) of the radiopeptide was added to a water/n-octanol (1:1) mixture. The mixture was vigorously vortexed and kept at rest for 1 h. Then, it was centrifuged at 1677× g for 5 min. Equal samples from both aqueous/organic phases were collected and their radioactivities were measured in an automatic Wizard 3 2480 gamma counter (Perkin Elmer; Norwalk, CT, USA) to determine log P values (n = 5).

Series [2] concerns tumor-bearing glioblastoma brain homogenate (model). Briefly: Binding and internalization in brain homogenate of glioblastoma model rats. Also on record: species or system rat. As to conditions: 37 °C, n = 7. As for the experimental part:
(§1) An aliquot containing 2 × 10^6 C6 cells in supplemented DMEM-F12 culture medium (450 µL) was added to a vial and incubated with 10 nmol of the radiolabeled peptide at 37 °C with gentle agitation. The studies were evaluated at 1, 4 and 24 h (n = 7 for each time point). Then, the vials were centrifuged (604× g for 5 min). The radioactivities of the pellet and supernatant were separately evaluated using an automatic Wizard 3 2480 gamma counter (Perkin Elmer; Norwalk, CT, USA). The percentage of the bound fraction was calculated by Equation (1). (1) % bound fraction=Pellet radioactivity (cpm)/Pellet radioactivity (cpm)+supernatant radioactivity (cpm)×100
(§2) In the sequence, a second radioactivity determination was performed. For that, pellets were resuspended using 0.5 mL of acid buffer (0.2 M acetic acid in 0.5 M NaCl solution; pH 2.8) and maintained at room temperature for 5 min to remove the radiolabeled molecule attached to the cell membrane surface. Then, the vials were centrifuged (1677× g for 5 min). The pellet and supernatant were separated and their radioactivities were measured using the above-mentioned automatic gamma counter. The percentage of the internalized fraction of radiopeptides was estimated based on the ratio between the activity contained in the precipitate and the supernatant and calculated by Equation (2):(2) % internalized fraction=Pellet radioactivity (cpm)/Pellet radioactivity (cpm)+supernatant radioactivity (cpm)×100
Adult male Sprague Dawley rats (280–320 g) were maintained under controlled environmental conditions (12 h light-dark cycle; constant temperature 21 ± 2 °C), with free access to water and food. Tumorigenic glioblastoma cells were implanted in the right frontal cortex, following specific coordinates (referred to bregma): anteroposterior = 1.0 mm; lateral = 3.0 mm; depth = 5.0 mm. An aliquot of culture medium (10 µL) containing 1 × 10^6 C6 cells in suspension was injected slowly (1 µL/min) using a Hamilton syringe positioned on a stereotaxic surgery frame. In the control group, only the culture medium, without cells, was injected. An interval of 20 days after cell inoculation was allowed for tumor development.
(§3) Brain homogenates were prepared at the concentration of ~10 mg of wet tissue in 1000 µL of PBS (pH 7.4). Normal brain tissue (control) and tumor-bearing brain tissue (model) were used. A 25 µL aliquot (1.2 MBq/nmol) of each radiopeptide was added to 200 µL of freshly prepared homogenates (n = 7). The homogenates containing the radiolabeled peptides were incubated at 37 °C for 1, 4 and 24 h. Binding and internalization fractions were determined as described in Section 3.11.

The test system of series [3] is normal rat brain homogenates (control). Briefly: Binding and internalization in brain homogenate of normal rats. The note with it: 37 °C, n = 7. As for the experimental part:
as §1, §2, §3

The mark [4] stands for this setting: glioblastoma model brain homogenate, 24 h.
[5] abbreviates: normal rat brain homogenate, 24 h.

On to [^99mTc]Tc(CO)3-GRGDHV, for which the “Serum protein binding (SPB)” value in the series with serum proteins is ~50% and 49.97 ± 0.01%. In addition, the “Binding to C6 cells (unblock)” value in the series on C6 cells (2.0 × 10^5 cells per well, 37 °C, 1.66 nmol [131I]I-GRGDYV or 8.88 nmol [99mTc]Tc(CO)3-GRGDHV, mean ± SD) was 0.61 ± 0.07%. The “Binding to C6 cells with excess of non-radiolabeled peptide (block)” value in the series on C6 cells (1000× excess of the respective non-radiolabeled peptide, 37 °C, mean ± SD) was 0.33 ± 0.04%. Further, the “Reduction of binding by excess of non-radiolabeled peptide” value with C6 cells (block versus unblock, C6 cells) is recorded as ~ 46%. In series [1], the lipophilicity (Log P) is on record as −1.13 ± 0.14. The Bound fraction is listed as ~ 50% in series [2] (glioblastoma model brain homogenate (~10 mg/1000 µL PBS pH 7.4), 1 h); ~ 78% in series [2] (setting [4]); ~ 50% in series [3] (normal rat brain homogenate (~10 mg/1000 µL PBS pH 7.4), 1 h); ~ 65% in series [3] (setting [5]). Also, the Internalized fraction in series [2] (glioblastoma model brain homogenate, 1 h) is recorded as ~ 79%; in series [2] (setting [4]), ~ 98%; in series [3] (normal rat brain homogenate, 1 h), ~ 63%; in series [3] (setting [5]), ~ 87%.
